In patent publication US20110319424A1, “NAPHTHYRIDIN-2(1H) -ONE COMPOUNDS USEFUL AS ANTIBACTERIALS” (priority 2008, published 2011):
Converted amounts (≈) assume the structure as drawn.

What was measured:
Type in all cases: cell-based
[1] = General antimicrobial activity assay (whole-cell, CLSI broth microdilution, MIC); conditions: against a strain of at least one of the organisms listed; broth microdilution, 0.016 to 64 μg/mL
Method: (§1) General Antimicrobial Activity Assay
(§2) Whole-cell antimicrobial activity was determined by broth microdilution using the Clinical and Laboratory Standards Institute (CLSI) recommended procedure, Document M7-A7, “Methods for Dilution Susceptibility Tests for Bacteria that Grow Aerobically”. The compounds were tested in serial two-fold dilutions ranging from 0.016 to 64 μg/mL.
(§3) Compounds were evaluated against gram-positive organisms, selected from i) Staphylococcus aureus, ii) Streptococcus pneumoniae, and iii) Enterococcus faecalis. Two compounds were additionally evaluated against Streptococcus pyogenes, and Enterococcus faecium.
(§4) In addition, compounds were evaluated against gram-negative organisms selected from iv) Haemophilus influenzae, v) Moraxella catarrhalis and vi) Escherichia coll. Two compounds were additionally evaluated against Pseudomonas aeruginosa, Proteus mirabilis, Enterobacter cloacae, Enterobacter aerogenes, Klebsiella pneumoniae and Stenotrophomonas maltophilia.
(§5) The minimum inhibitory concentration (MIC) was determined as the lowest concentration of compound that inhibited visible growth. A mirror reader was used to assist in determining the MIC endpoint.

[2] = test system: Mycobacterium tuberculosis H37Rv; assay: Mycobacterium tuberculosis H37Rv inhibition assay (MIC, resazurin fluorescence); conditions: ATCC 25618 / H37Rv, 144 h, H37Rv strain (ATCC25618), Middlebrook 7H9, six days at 37° C. then resazurin 48 hours
[3] = test system: gram-positive organisms i) Staphylococcus aureus, ii) Streptococcus pneumoniae, iii) Enterococcus faecalis and gram-negative organisms iv) Haemophilus …; assay: General antimicrobial activity assay (whole-cell, CLSI broth microdilution, MIC); conditions: organisms i)-vi) of the antimicrobial activity assay
Method: as §1, §2, §3, §4, §5

Q: What does the source list for `O=c1ccc2ncc(F)cc2n1CCN1CCC(NCc2ccc(F)cc2)CC1` [Example 14, 7-Fluoro-1-[2-(4-{[(4-fluorophenyl)methyl]amino}-1-piperidinyl)ethyl]-1,5-naphthyridin-2(1H)-one]?
A: MIC [1]: 4 µg/mL (≈ 10 µM); MIC [2]: ≤ 2.4 µg/mL

Q: For `O=c1ccc2ncccc2n1CCN1CCC(NCc2cccc(Cl)c2)CC1` [Example 57, 1-[2-(4-{[(3-chlorophenyl)methyl]amino}-1-piperidinyl)ethyl]-1,5-naphthyridin-2(1H)-one], which MIC [1] is on record?
A: 4 µg/mL (≈ 10.1 µM)

Q: What about the MIC [2] of the same compound?
A: ≤ 2.4 µg/mL

Q: For `O=c1ccc2ncccc2n1CCN1CCC(NCc2cc(Cl)cc(Cl)c2)CC1` [Example 58, 1-[2-(4-{[(3,5-dichlorophenyl)methyl]amino}-1-piperidinyl)ethyl]-1,5-naphthyridin-2(1H)-one], which “activity against organisms i)-vi)” value [3] is on record?
A: no activity

Q: For `O=c1ccc2ncc(F)cc2n1CCN1CCC(NCc2nc(Br)cs2)CC1` [Example 60, 1-[2-(4-{[(4-bromo-1,3-thiazol-2-yl)methyl]amino}-1-piperidinyl)ethyl]-7-fluoro-1,5-naphthyridin-2(1H)-one], which MIC [1] is on record?
A: 32 µg/mL (≈ 68.6 µM)

Q: For `Cc1ncc(CNC2CCN(CCn3c(=O)ccc4ncc(F)cc43)CC2)[nH]1.O=C(O)C(F)(F)F` [Example 119, 7-fluoro-1-[2-(4-{[(2-methyl-1H-imidazol-4-yl)methyl]amino}-1-piperidinyl)ethyl]-1,5-naphthyridin-2(1H)-one trifluoroacetate], which MIC [1] is on record?
A: > 64 µg/mL

Q: For `Cc1ncc(CN[C@H]2CCN(CCn3c(=O)ccc4ncc(F)cc43)C[C@H]2O)cc1F` [Example 128, 7-fluoro-1-[2-((3R,4S)-4-{[(5-fluoro-6-methyl-3-pyridinyl)methyl]amino}-3-hydroxy-1-piperidinyl)ethyl]-1,5-naphthyridin-2(1H)-one], which MIC [1] is on record?
A: 32 µg/mL (≈ 74.5 µM)

Q: What about the MIC [2] of the same compound?
A: ≤ 2.4 µg/mL
